Target: T1, PKC-ε (Mus musculus, UniProt P16054)
T1 construct: from tissue; host or cells: brain of C57B/6 male mice
T1 sequence (P16054 1-737): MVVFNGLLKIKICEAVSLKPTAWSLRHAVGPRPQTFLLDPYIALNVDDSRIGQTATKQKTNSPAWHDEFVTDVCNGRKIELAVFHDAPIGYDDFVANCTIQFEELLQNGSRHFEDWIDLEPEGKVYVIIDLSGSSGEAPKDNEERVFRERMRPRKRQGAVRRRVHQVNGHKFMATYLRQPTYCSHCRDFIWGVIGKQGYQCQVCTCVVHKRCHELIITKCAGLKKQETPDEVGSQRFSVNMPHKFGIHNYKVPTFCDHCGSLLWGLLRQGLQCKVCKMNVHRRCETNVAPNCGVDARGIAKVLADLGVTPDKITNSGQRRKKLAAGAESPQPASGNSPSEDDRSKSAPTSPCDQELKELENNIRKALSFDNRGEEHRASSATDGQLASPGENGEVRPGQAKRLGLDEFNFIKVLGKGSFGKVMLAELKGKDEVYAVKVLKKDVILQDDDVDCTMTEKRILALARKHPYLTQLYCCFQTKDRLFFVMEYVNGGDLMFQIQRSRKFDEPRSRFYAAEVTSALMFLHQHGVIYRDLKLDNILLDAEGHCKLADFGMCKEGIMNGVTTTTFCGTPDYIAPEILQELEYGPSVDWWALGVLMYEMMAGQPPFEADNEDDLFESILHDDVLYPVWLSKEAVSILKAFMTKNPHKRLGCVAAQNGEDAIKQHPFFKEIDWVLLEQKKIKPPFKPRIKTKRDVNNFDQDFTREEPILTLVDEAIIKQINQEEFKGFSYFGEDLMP
Experiment: Total PKC (PKC-ε) level / downregulation in brain after i.v. bryostatin dosing regimens
Assay type: in vivo
Conditions: mice
Method: FIGS. […] (A) Downregulation of brain PKCε in mice after intravenous administration of bryostatin at doses of 10 μg/m^2, 15 μg/m^2, and 25 μg/m^2 for 1-6 consecutive weeks. (B) Downregulation of brain PKCε in mice after intravenous administration of bryostatin at two different doses (i) 2×25+2 μg/m^2, and (ii) 25 μg/m^2. Dosing regimen is disclosed along the abscissa.
Mouse studies were performed using bryostatin-i in accordance with the protocol described below. The following metrics were used to evaluate dosing regimens: induction of brain postsynaptic anchoring protein PSD-95, upregulation of BDNF levels in brain, minimal downregulation of PKC-ε levels, and elevation of brain and plasma concentrations of bryostatin. Groups of 2-3 mice were formed and housed in an approved research animal facility. Water was give ad libitum. A first study involved three groups of mice with animals in each group dosed weekly for 1, 2, 3, or 6 consecutive weeks. Each group had its own control group containing the same number of mice. In this study, mice in the first, second and third groups received an intravenous (i.v.) injection of 10 μg/m^2, 15 μg/m^2, and 25 μg/m^2 dose of bryostatin respectively. For each dose, mice in that group received a single injection of bryostatin weekly for predetermined number of consecutive weeks. Following dosing, mice were sacrificed and the blood and brain of each animal was collected for further analysis.
Cells were harvested in homogenizing buffer containing 10 mM Tris-Cl (pH 7.4), 1 mM PMSF (phenylmethylsulfonyl fluoride), 1 mM EGTA, 1 mM EDTA. 50 mM NaF, and 20 μM leupeptin and were lysed by sonication. The homogenate was centrifuged at 100,000×g for 15 min at 4° C. to obtain the cytosolic fraction (supernatant) and membrane (pellet). The pellet was resuspended in the homogenizing buffer by sonication. Protein concentration was measured using the Coomassie Plus (Bradford) Protein Assay kit (Pierce, USA). Following quantification, 20 μg of protein from each sample was subjected to SDS-PAGE analysis in 4-20% gradient Tris-Glycine gel (Invitrogen, USA). The separated protein was then transferred to nitrocellulose membrane. The membrane was blocked with BSA at room temperature for 15 min and was incubated with primary antibody over night at 4° C. After the incubation, it was washed three times with TBS-T (Tris Buffered saline-Tween 20) and further incubated with alkaline phosphatase conjugated secondary antibody (Jackson Immunoresearch Laboratories. USA) at 1:10,000 dilution for 45 min. The membrane was finally washed three times with TBS-T and developed using the 1-step NBT-BCIP substrate (Pierce, USA). Western Blot was imaged in the Image Quant RT-ECL (GE Life Sciences, Piscataway, N.J.) and densitometric quantification was performed using the IMAL software (Blanchette Rockefeller Neurosciences institute, Morgantown, W. Va.). For translocation assays, PKC activation was represented as the percentage of total protein in the membrane (membrane/cytosol+membrane). […]
C57B/6 male mice weighing between 19-21 grams were obtained from Charles River and housed in cages, 1 mouse/cage in a vivarium at the Blanchette Rockefeller Neurosciences institute. Animals were allowed access to water ad libitum.
In these studies, bryostatin was administered intravenously (i.v.) by injection into the tail vein of a mouse. Stock solutions of bryostatin were prepared in dimethyl sulfoxide (DMSO). Prior to administration to a mouse, the stock DMSO solution of bryostatin was diluted to a predetermined concentration by dilution with phosphate buffered saline/saline (PBS/saline).
Three different dosing regimens (injection schedules) were compared. The dosing regimens tested were weekly dosing, dosing every other week (alternating weeks), and spaced or intermittent dosing. […]

CCC/C=C/C=C/C(=O)O[C@H]1/C(=C/C(=O)OC)C[C@H]2C[C@H]([C@@H](C)O)OC(=O)C[C@H](O)C[C@@H]3C[C@H](OC(C)=O)C(C)(C)[C@](O)(C[C@@H]4C/C(=C/C(=O)OC)C[C@H](/C=C/C(C)(C)[C@]1(O)O2)O4)O3 [Bryostatin-1]
PKC-ε downregulation (10 μg/m^2 weekly, total of 6 consecutive weeks): appeared to result in downregulation | PKC-ε downregulation (25 μg/m^2, continued dosing, 1 on/1 off and 2 on/1 off regimens): additional downregulation occurred | PKC downregulation (25 μg/m^2, rest intervals increased to three weeks (3 on/3 off)): significantly reduced PKC downregulation | PKC-ε downregulation in brain (25 μg/m^2, three consecutive weekly doses, versus lower doses): did not produce more PKC-ε downregulation | PKC (% of Control), total PKC level (cage 4: 25 μg/m^2 i.v. once weekly, 3 weeks, 24 h): 84.841 % of Control | PKC (% of Control), total PKC level (cage 5: 25 μg/m^2 i.v., 3 on/3 off/3 on (9 weeks), 24 h): 78.2 % of Control | PKC (% of Control), total PKC level (cage 6: 10 μg/m^2 i.v. once weekly, 3 weeks, 24 h): 95.197 % of Control | PKC (% of Control), total PKC level (cage 8: 10 μg/m^2 i.v. once weekly, 6 weeks, 24 h): 80.441 % of Control | PKC (% of Control), total PKC level (cage 9: 25 μg/m^2 i.v., alternating, weeks 1 and 3, 24 h): 63.02 % of Control | PKC (% of Control), total PKC level (cage 10: 25 μg/m^2 i.v., alternating, weeks 1, 3, 5, 7, 9, 24 h): 59.11 % of Control | PKC (% of Control), total PKC level (cage 11: 25 μg/m^2 i.v., weeks 1 and 2, collection week 3 (7 d delay)): 56.7 % of Control | PKC (% of Control), total PKC level (cage 12: 25/20 μg/m^2 i.v., injections weeks 1, 2, 4, 6, 8, collection week 9 (7 d delay)): 49.92 % of Control | PKC (% of Control), total PKC level (cage 18: 15 μg/m^2 i.v. once weekly, 3 weeks, 24 h): 66.430 % of Control | PKC (% of Control), total PKC level (cage 22 (regimen not listed in Tables 2/3)): 89.206 % of Control | PKC (% of Control), total PKC level (cage 24: 25 μg/m^2 i.v. once weekly, 2 weeks, 24 h): 96.723 % of Control
